Results published in PubChem BioAssay AID2060488 (Molecular Pharmacology Branch, DTP, NCI, 2025).

System: 966289-007-R4-J1-PDC complex spheroid viability
Experiment: Anticancer human tumor 966289-007-R4-J1-PDC patient-derived pancreatic adenocarcinoma cell line growth inhibition [GQUAD]
Details: for IC50: curve of first compound; for viability, T/C: stronger effect = lower value
From the text: DNA G-quadruplex Stabilizer Agents in Combinations in Complex Spheroids
A high-throughput screen of multi-cell type tumor spheroids was designed to identify active combinations of DNA G-quadruplex stabilizer agents and targeted small molecules. Complex spheroids include a stromal component modeled by human endothelial cells (HUVEC) and fibroblasts modeled by human mesenchymal stem cells (MSCs). The concentration ranges selected for each drug and investigational agent were based upon clinically achievable concentrations if the clinical Cmax of the agent was known.
Compounds. The drugs and investigational agents: pidnarulex (CX-5461; NSC782164), APTO-253 (NSC789042), BRACO-19 (NSC847499), peposertib (NSC802822), ceralasertib (NSC780249), elimusertib (NSC800525), camonsertib (NSC841442), AZD-1390 (NSC803789), olaparib (NSC753686), talazoparib (NSC767125), ART-558 (NSC835418), sotorasib (NSC818433), MRTX-1133 (NSC836407), SN-38 (NSC673596), topotecan (NSC609699), etoposide (NSC141540), doxorubicin (NSC123127), gemcitabine (NSC613327), 5-fluorouracil (NSC19893), paclitaxel (NSC125973), vemurafenib (NSC761431), panobinostat (NSC761190), R-306465 (JNJ-16241199; NSC773264), adavosertib (NSC754352), TP-3654 (NSC805149), carboplatin (NSC241240), KSQ-4279 (NSC840948), and staurosporine (NSC755774) were obtained from the National Cancer Institute (NCI) Developmental Therapeutics Program Chemical Repository (34). The FDA-approved anticancer drug set is available from the NCI Developmental Therapeutics Program. […] The stock solutions were prepared in dimethyl sulfoxide (DMSO, Sigma-Aldrich, St. Louis, MO, cat. D2650) at 800-fold the tested concentration and stored at -70 degrees C prior to their use. All drugs and investigational agents were tested over a range starting from a high concentration at or near the clinical Cmax and decreasing in half-log increments. If the clinical Cmax for an agent had not been determined, the highest concentration tested was 10 microM.
2.3 Cell Culture. All cells were maintained in an incubator at 37 degrees C and 5% CO2 with 95% humidity. The PDC lines were cultured according to standard operating procedures established by the NCI PDMR. All PDCs were thawed and cultured in Matrigel-coated flasks prepared with a working solution of 1X Ham's F-12 nutrient mix, without supplementation (Invitrogen, cat. 11765054), 100 U/mL penicillin-streptomycin (Invitrogen, cat. 15140122), and 2.5% Matrigel (Corning Inc., cat. 354248) for the first three passages. The 857933-349-R-J2-PDC line was cultured in 6C/Colon 1B media, which includes advanced DMEM/F-12 (Thermo Fisher Scientific, cat. 12634028), 10 mM HEPES (Thermo Fisher Scientific, cat. 15630080), 1X GlutaMAX supplement (Thermo Fisher Scientific, cat. 35050061), 0.1 mg/mL primocin (InvivoGen, cat. ant-pm-2), 10% defined fetal bovine serum, heat inactivated (HyClone Laboratories Inc., cat. SH30070.03HI), 50% L-WRN conditioned media (ATCC, cat. CRL-3276), 1.25 mM N-Acetyl-L-cysteine (Sigma-Aldrich, cat. A9165), 10 mM nicotinamide (Sigma-Aldrich, cat. N0636), 1X B-27 supplement (Thermo Fisher Scientific, cat. 17504044), 1X N-2 supplement (Thermo Fisher Scientific, cat. 17502048), 10 microM Y-27632 dihydrochloride (Tocris Bioscience, cat. 1254), and 50 ng/mL human EGF recombinant protein (Thermo Fisher Scientific, cat. PHG0311). The 485176-168-R4-J1-PDC line was cultured in Panc media, which includes all 6C/Colon 1B media components plus 100 ng/mL human FGF-10 (Thermo Fisher Scientific, cat. 100-26), 500 nM SB-431542 (Selleckchem, cat. S1067), and gastrin (Tocris, cat. 3006).
[…]

[1] = second compound 0.0316 µM, first compound 0.0316 µM
[2] = second compound 0.0316 µM, first compound 0.1 µM
[3] = second compound 0.0316 µM, first compound 0.316 µM
[4] = second compound 0.0316 µM, first compound 1 µM
[5] = second compound 0.0316 µM, first compound 3.16 µM
[6] = second compound 0.0316 µM, first compound 10 µM
[7] = second compound 0.1 µM, first compound 0.0316 µM
[8] = second compound 0.1 µM, first compound 0.1 µM
[9] = second compound 0.1 µM, first compound 0.316 µM
[10] = second compound 0.1 µM, first compound 1 µM
[11] = second compound 0.1 µM, first compound 3.16 µM
[12] = second compound 0.1 µM, first compound 10 µM
[13] = second compound 0.316 µM, first compound 0.0316 µM
[14] = second compound 0.316 µM, first compound 0.1 µM
[15] = second compound 0.316 µM, first compound 0.316 µM
[16] = second compound 0.316 µM, first compound 1 µM
[17] = second compound 0.316 µM, first compound 3.16 µM
[18] = second compound 0.316 µM, first compound 10 µM
[19] = second compound 1 µM, first compound 0.0316 µM
[20] = second compound 1 µM, first compound 0.1 µM
[21] = second compound 1 µM, first compound 0.316 µM
[22] = second compound 1 µM, first compound 1 µM
[23] = second compound 1 µM, first compound 3.16 µM
[24] = second compound 1 µM, first compound 10 µM
[25] = second compound 3.16 µM, first compound 0.0316 µM
[26] = second compound 3.16 µM, first compound 0.1 µM
[27] = second compound 3.16 µM, first compound 0.316 µM
[28] = second compound 3.16 µM, first compound 1 µM
[29] = second compound 3.16 µM, first compound 3.16 µM
[30] = second compound 3.16 µM, first compound 10 µM
[31] = second compound 10 µM, first compound 0.0316 µM
[32] = second compound 10 µM, first compound 0.1 µM
[33] = second compound 10 µM, first compound 0.316 µM
[34] = second compound 10 µM, first compound 1 µM
[35] = second compound 10 µM, first compound 3.16 µM
[36] = second compound 10 µM, first compound 10 µM
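Note: spheroids exposed to the agents for seven days before readout.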
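Throughout, for viability, T/C: percent viability relative to DMSO vehicle control wells taken as 100%.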

SMILES: CC1COCCN1c1cc(C2(S(C)(=N)=O)CC2)nc(-c2ccnc3[nH]ccc23)n1 (stereo unspecified) + CN(C)c1ccc(Nc2c3ccc(NC(=O)CCN4CCCC4)cc3nc3cc(NC(=O)CCN4CCCC4)ccc23)cc1
- IC50 (second compound 0.0316 µM): 4.69 µM
- IC50 (second compound 0.1 µM): 4.36 µM
- IC50 (second compound 0.316 µM): 4.25 µM
- IC50 (second compound 1 µM): 4.42 µM
- IC50 (second compound 3.16 µM): 3.93 µM
- IC50 (second compound 10 µM): 2 µM
- viability, T/C [1]: 106%
- viability, T/C [2]: 102%
- viability, T/C [3]: 102%
- viability, T/C [4]: 101%
- viability, T/C [5]: 69.8%
- viability, T/C [6]: 12.3%
- viability, T/C [7]: 100%
- viability, T/C [8]: 101%
- viability, T/C [9]: 102%
- viability, T/C [10]: 105%
- viability, T/C [11]: 64.7%
- viability, T/C [12]: 12.1%
- viability, T/C [13]: 99.8%
- viability, T/C [14]: 102%
- viability, T/C [15]: 104%
- viability, T/C [16]: 99.8%
- viability, T/C [17]: 62.6%
- viability, T/C [18]: 12.8%
- viability, T/C [19]: 89.5%
- viability, T/C [20]: 97%
- viability, T/C [21]: 104%
- viability, T/C [22]: 103%
- viability, T/C [23]: 65.5%
- viability, T/C [24]: 12.3%
- viability, T/C [25]: 99.8%
- viability, T/C [26]: 100%
- viability, T/C [27]: 106%
- viability, T/C [28]: 104%
- viability, T/C [29]: 58.8%
- viability, T/C [30]: 12.4%
- viability, T/C [31]: 104%
- viability, T/C [32]: 101%
- viability, T/C [33]: 101%
- viability, T/C [34]: 94%
- viability, T/C [35]: 20.9%
- viability, T/C [36]: 4.7%

SMILES: COc1ccc([C@@H](O)c2cc(-c3ncnc4cc(N5CCOCC5)ccc34)c(F)cc2Cl)nn1 + CN(C)c1ccc(Nc2c3ccc(NC(=O)CCN4CCCC4)cc3nc3cc(NC(=O)CCN4CCCC4)ccc23)cc1
- IC50 (second compound 0.0316 µM): > 10 µM
- IC50 (second compound 0.1 µM): > 10 µM
- IC50 (second compound 0.316 µM): > 10 µM
- IC50 (second compound 1 µM): > 10 µM
- IC50 (second compound 3.16 µM): > 10 µM
- IC50 (second compound 10 µM): 1.97 µM
- viability, T/C [1]: 104%
- viability, T/C [2]: 98.6%
- viability, T/C [3]: 104%
- viability, T/C [4]: 108%
- viability, T/C [5]: 110%
- viability, T/C [6]: 99.5%
- viability, T/C [7]: 101%
- viability, T/C [8]: 97.8%
- viability, T/C [9]: 103%
- viability, T/C [10]: 104%
- viability, T/C [11]: 109%
- viability, T/C [12]: 98.1%
- viability, T/C [13]: 99.8%
- viability, T/C [14]: 99.5%
- viability, T/C [15]: 106%
- viability, T/C [16]: 107%
- viability, T/C [17]: 107%
- viability, T/C [18]: 90.6%
- viability, T/C [19]: 101%
- viability, T/C [20]: 101%
- viability, T/C [21]: 107%
- viability, T/C [22]: 108%
- viability, T/C [23]: 111%
- viability, T/C [24]: 93%
- viability, T/C [25]: 101%
- viability, T/C [26]: 97.4%
- viability, T/C [27]: 108%
- viability, T/C [28]: 105%
- viability, T/C [29]: 109%
- viability, T/C [30]: 83.4%
- viability, T/C [31]: 103%
- viability, T/C [32]: 97.3%
- viability, T/C [33]: 101%
- viability, T/C [34]: 89.2%
- viability, T/C [35]: 22.6%
- viability, T/C [36]: 8.27%

SMILES: O=C(c1cc(Cc2n[nH]c(=O)c3ccccc23)ccc1F)N1CCN(C(=O)C2CC2)CC1 + CN(C)c1ccc(Nc2c3ccc(NC(=O)CCN4CCCC4)cc3nc3cc(NC(=O)CCN4CCCC4)ccc23)cc1
- IC50 (second compound 0.0316 µM): 4.87 µM
- IC50 (second compound 0.1 µM): 5.02 µM
- IC50 (second compound 0.316 µM): 4.91 µM
- IC50 (second compound 1 µM): 5.07 µM
- IC50 (second compound 3.16 µM): 3.74 µM
- IC50 (second compound 10 µM): 1.93 µM
- viability, T/C [1]: 106%
- viability, T/C [2]: 104%
- viability, T/C [3]: 110%
- viability, T/C [4]: 105%
- viability, T/C [5]: 74.2%
- viability, T/C [6]: 9.57%
- viability, T/C [7]: 104%
- viability, T/C [8]: 97.9%
- viability, T/C [9]: 107%
- viability, T/C [10]: 109%
- viability, T/C [11]: 76.7%
- viability, T/C [12]: 10.2%
- viability, T/C [13]: 100%
- viability, T/C [14]: 103%
- viability, T/C [15]: 101%
- viability, T/C [16]: 108%
- viability, T/C [17]: 75.1%
- viability, T/C [18]: 9.35%
- viability, T/C [19]: 99.7%
- viability, T/C [20]: 99.3%
- viability, T/C [21]: 104%
- viability, T/C [22]: 109%
- viability, T/C [23]: 79%
- viability, T/C [24]: 8.19%
- viability, T/C [25]: 105%
- viability, T/C [26]: 104%
- viability, T/C [27]: 101%
- viability, T/C [28]: 107%
- viability, T/C [29]: 57.4%
- viability, T/C [30]: 6.49%
- viability, T/C [31]: 102%
- viability, T/C [32]: 103%
- viability, T/C [33]: 104%
- viability, T/C [34]: 95.7%
- viability, T/C [35]: 15.6%
- viability, T/C [36]: 3.36%
